In the NIST ThermoML archive (doi:10.1016/j.tca.2014.05.028):
Numbers after ± are expanded uncertainties.

Assay: xn = mol fraction of the nth substance listed
Conditions: 101 kPa, Liquid; for viscosity: Falling or rolling sphere viscometry; for mass density: Vibrating tube method

CCCC[N+]1(C)CCCC1.[Br-] [1-butyl-1-methylpyrrolidinium bromide] + O
Conditions | mass density, 323.15 K [kg/m3] | mass density, 328.15 K [kg/m3] | mass density, 333.15 K [kg/m3] | mass density, 338.15 K [kg/m3] | mass density, 343.15 K [kg/m3] | viscosity, 323.15 K [mPa·s] | viscosity, 328.15 K [mPa·s] | viscosity, 333.15 K [mPa·s] | viscosity, 338.15 K [mPa·s] | viscosity, 343.15 K [mPa·s]
x1 = 0.0265 | 1037.05 ± 0.38 | 1034.23 ± 0.38 | 1031.32 ± 0.38 | 1028.4 ± 0.37 | 1024.59 ± 0.37 | 0.879 ± 0.053 | 0.782 ± 0.047 | 0.705 ± 0.043 | 0.649 ± 0.039 | 0.586 ± 0.035
x1 = 0.0561 | 1078.21 ± 0.32 | 1074.97 ± 0.32 | 1071.61 ± 0.32 | 1068.07 ± 0.32 | 1065.42 ± 0.32 | 1.42 ± 0.086 | 1.244 ± 0.075 | 1.1 ± 0.067 | 0.997 ± 0.06 | 0.887 ± 0.054
x1 = 0.0871 | 1109.15 ± 0.28 | 1105.64 ± 0.28 | 1102.07 ± 0.28 | 1098.46 ± 0.28 | 1094.8 ± 0.28 | 2.234 ± 0.14 | 1.935 ± 0.12 | 1.701 ± 0.1 | 1.536 ± 0.093 | 1.366 ± 0.083
x1 = 0.1283 | 1138.27 ± 0.28 | 1134.62 ± 0.28 | 1130.94 ± 0.28 | 1127.23 ± 0.28 | 1123.48 ± 0.28 | 3.762 ± 0.23 | 3.23 ± 0.2 | 2.817 ± 0.17 | 2.525 ± 0.15 | 2.229 ± 0.14
x1 = 0.1645 | 1156.64 ± 0.29 | 1152.97 ± 0.29 | 1149.27 ± 0.29 | 1145.56 ± 0.28 | 1141.82 ± 0.28 | 5.403 ± 0.33 | 4.572 ± 0.28 | 3.923 ± 0.24 | 3.462 ± 0.21 | 3.005 ± 0.18
x1 = 0.2074 | 1172.59 ± 0.32 | 1168.97 ± 0.32 | 1165.34 ± 0.32 | 1161.68 ± 0.31 | 1158 ± 0.31 | 7.915 ± 0.48 | 6.602 ± 0.4 | 5.554 ± 0.34 | 4.89 ± 0.3 | 4.186 ± 0.25
x1 = 0.2525 | 1185.17 ± 0.37 | 1181.63 ± 0.36 | 1178.06 ± 0.36 | 1174.49 ± 0.36 | 1170.9 ± 0.36 | 11.49 ± 0.7 | 9.462 ± 0.57 | 7.969 ± 0.48 | 6.876 ± 0.42 | 5.839 ± 0.35
x1 = 0.28 | 1191.05 ± 0.4 | 1187.55 ± 0.4 | 1184.04 ± 0.4 | 1180.52 ± 0.39 | 1176.99 ± 0.39 | 13.89 ± 0.84 | 11.38 ± 0.69 | 9.48 ± 0.57 | 8.118 ± 0.49 | 6.858 ± 0.42
x1 = 0.3012 | 1195.06 ± 0.43 | 1191.6 ± 0.43 | 1188.13 ± 0.42 | 1184.65 ± 0.42 | 1181.16 ± 0.42 | 16.27 ± 0.99 | 13.25 ± 0.8 | 10.97 ± 0.67 | 9.372 ± 0.57 | 7.882 ± 0.48
x1 = 0.3254 | 1199.08 ± 0.47 | 1195.67 ± 0.46 | 1192.25 ± 0.46 | 1188.82 ± 0.46 | 1185.37 ± 0.46 | 19.34 ± 1.2 | 15.64 ± 0.95 | 12.89 ± 0.78 | 10.94 ± 0.66 | 9.135 ± 0.55
x1 = 1 | 1201.84 ± 2.8 | 1198.05 ± 2.8 | 1194.28 ± 2.8 | 1190.53 ± 2.7 | 1186.8 ± 2.7 | – | – | – | – | –
